The text below walks through data of patent US8735412B2, “Sulfoximine-substituted anilinopyrimidine derivatives as CDK inhibitors, the production thereof, and use as medicine” (Bayer Intellectual Property GmbH, priority 2008, dated 2014).

One data set concerns the target T1, CDK1/CycB (Homo sapiens, UniProt P06493).
T1 construct: purchased ProQinase GmbH, Freiburg; host or cells: baculovirus-infected insect cells (Sf9)
Briefly: CDK1/CycB kinase assay (Assay 1). Format: biochemical. The following applies: 0.5 μM ATP, histon IIIS substrate; read-out: CDK1/CycB (Assay 1) Concentration for 50% inhibition of enzyme activity, IC50. The procedure: 10.1 Assay 1: CDK1/CycB Kinase Assay
Recombinant CDK1 and CycB-GST fusion proteins, purified from baculovirus-infected insect cells (Sf9), were purchased from ProQinase GmbH, Freiburg. The histon IIIS used as kinase substrate is commercially available from the company Sigma.
CDK1/CycB (200 ng/measuring point) was incubated for 10 min at 22° C. in the presence of various concentrations of test substances (0 μM, and within the range 0.01-100 μM) in assay buffer [50 mM Tris/HCl pH8.0, 10 mM MgCl2, 0.1 mM Na ortho-vanadate, 1.0 mM dithiothreitol, 0.5 μM adenosine triphosphate (ATP), 10 μg/measuring point histon IIIS, 0.2 μCi/measuring point ^33P-gamma ATP, 0.05% NP40, 1.25% dimethylsulfoxide]. The reaction was stopped by adding EDTA solution (250 mM, pH8.0, 15 μl/measuring point).
(§1) From each reaction mixture, 15 μl was applied to P30 filter strips (from Wallac), and unincorporated ^33P-ATP was removed by washing the filter strips three times, for 10 min each time, in 0.5% phosphoric acid. After drying the filter strips for 1 hour at 70° C., the filter strips were covered with scintillator strips (MeltiLex™ A, from Wallac) and stoved for 1 hour at 90° C. The amount of incorporated ^33P (substrate phosphorylation) was determined by scintillation measurement in a gamma-radiation measuring instrument (Wallac). The measured data were standardized to 0% inhibition (enzyme reaction without inhibitor) and 100% inhibition (all assay components except enzyme). The IC50 values were determined by means of a 4-parameter fit using the company's own software.

Data set [1] concerns HeLa-MaTu cervical carcinoma cells. Briefly: Proliferation assay (Assay 4), crystal violet staining. Format: cell-based. The following applies: Homo sapiens, 96 h, 4 days incubation; read-out: HeLa-MaTu (Assay 4) Concentration for 50% inhibition of cellular proliferation, IC50. The protocol: 10.4 Assay 4: Proliferation Assay
Cultivated human HeLa-MaTu cervical carcinoma cells (obtained from EPO-GmbH, Berlin) were plated at a density of 3000 cells/measuring point in a 96-well multititer is plate in 200 μl of growth medium (DMEM/HAMS F12, 2 mM L-glutamine, 10% fetal calf serum). After 24 hours the cells of one plate (zero-point plate) were stained with crystal violet (see below), whereas the medium of the other plates was replaced with fresh culture medium (200 μl), to which the test substances had been added at various concentrations (0 μM, and in the range 0.01-30 μM; the final concentration of the solvent dimethylsulfoxide was 0.5%). The cells were incubated for 4 days in the presence of the test substances. Cellular proliferation was determined by staining the cells with crystal violet: the cells were fixed by adding 20 μl/measuring point of an 11% glutaraldehyde solution for 15 min at room temperature. After washing the fixed cells with water three times, the plates were dried at room temperature. The cells were stained by adding 100 μl/measuring point of a 0.1% crystal violet solution (pH adjusted to pH3 by adding acetic acid). After washing the stained cells with water three times, the plates were dried at room temperature. The dye was dissolved by adding 100 μl/measuring point of a 10% acetic acid solution. The extinction was determined photometrically at a wavelength of 595 nm. The percentage change in cell growth was calculated by standardization of the measured values to the extinction values of the zero-point plate (=0%) and the extinction of the untreated (0 μM) cells (=100%). The measured data were standardized to 0% inhibition (cell proliferation without inhibitor) and 100% inhibition (zero-point plate). The IC50 values were determined by means of a 4-parameter fit using the company's own software.

Data set [2] deals with T2, VEGF receptor tyrosine kinase-2 (Homo sapiens, UniProt P35968).
T2 construct: GST; made in house; host or cells: baculovirus-infected insect cells (Sf9)
Briefly: VEGF receptor-2 kinase assay (Assay 3). It is filed as biochemical. To be noted: 8 μM ATP, poly-(Glu4Tyr) substrate; read-out: VEGF-R2 (Assay 3) Concentration for 50% inhibition of enzyme activity, IC50. The procedure:
10.3 Assay 3: VEGF Receptor-2 Kinase Assay
Recombinant VEGF receptor tyrosine kinase-2 was purified as GST fusion protein from baculovirus-infected insect cells (Sf9). Poly-(Glu4Tyr), used as kinase substrate, was purchased from the company Sigma.
VEGF receptor tyrosine kinase (90 ng/measuring point) was incubated for 10 min at 22° C. in the presence of various concentrations of test substances (0 μM, and within the range 0.001-30 μM) in 30 μl assay buffer [40 mM Tris/HCl pH5.5, 10 mM MgCl2, 1 mM MnCl2, 3 μM Na ortho-vanadate, 1.0 mM dithiothreitol, 8 μM adenosine triphosphate (ATP), 0.96 μg/measuring point poly-(Glu4Tyr), 0.2 μCi/measuring point ^33P-gamma ATP, 1.4% dimethylsulfoxide]. The reaction was stopped by adding EDTA solution (250 mM, pH8.0, 15 μl/measuring point).
as §1

For data set [3], the system named is HeLa-MaTu human cervical carcinoma xenograft. In words: HeLa-MaTu cervical tumor xenograft model on NMRI nude mice. The following applies: oral, 2x daily on day 5, 6, 12, 13, 19, 20. Format: in vivo. The procedure:
HeLa-MaTu (EPO-GmbH, Berlin) human cervical carcinoma cells, which were grown in cell culture, were implanted subcutaneously in the flank of female NMRI nude mice. […] The study was terminated as soon as the tumors in one of the groups reached a size of approx. 150 mm^2.
(§2) The growth-inhibiting effect of the compounds was tested in the HeLa-MaTu cervical tumor model as xenograft on NMRI nude mice. […] Treatment of the established tumors was begun on day 4 after inoculation of the tumors.
as §2, §2
The study was designed for determining the initial response of a human cervical carcinoma xenograft model to treatments with the 5-Br comparative substance V12. The growth-inhibiting effect of the compounds was tested in the HeLa-MaTu cervical tumor model as xenograft on NMRI nude mice. V12 was dissolved completely in the solubilizer 40% polyethylene glycol 400 (PEG 400)/60% water to a final concentration of 0.7 mg/ml (group 2), 0.85 mg/ml (group 3), or 1.0 mg/ml (group 4). Treatment of the established tumors was begun on day 4 after inoculation of the tumors.
HeLa-MaTu (EPO-GmbH, Berlin) human cervical carcinoma cells, which were grown in cell culture, were implanted subcutaneously in the flank of female NMRI nude mice. […] The study was terminated as soon as the tumors in one of the groups reached a size of approx. 160 mm^2.
(§3) The growth-inhibiting effect of the compounds was tested in the HeLa-MaTu cervical tumor model as xenograft on NMRI nude mice. […] Treatment of the established tumors was begun on day 5 after inoculation of the tumors.
as §3, §3
The following test groups were used: • Group 1: Control, treatment with solubilizer (40% PEG 400/60% water) • Group 2: Compound according to WO 2005/037800 prepared according to preparation V14 disclosed above • (6 mg/kg, oral, 2x daily on day 5, 6, 12, 13, 19, 20) • Group 3: Compound according to WO 2005/037800 prepared according to preparation V14 disclosed above • (8 mg/kg, oral, 2× daily on day 5, 6, 12, 13, 19, 20) • Group 4: Compound according to WO 2005/037800 prepared according to preparation V14 disclosed above • (10 mg/kg, oral, 2× daily on day 5, 6, 12, 13, 19, 20)
The study was designed for determining the initial response of a human cervical carcinoma xenograft model to treatments with the 5-Br comparative substance V14. The growth-inhibiting effect of the compounds was tested in the HeLa-MaTu cervical tumor model as xenograft on NMRI nude mice. V14 was dissolved completely in the solubilizer 40% polyethylene glycol 400 (PEG 400)/60% water to a final concentration of 0.6 mg/ml (group 2), 0.8 mg/ml (group 3), or 1.0 mg/ml (group 4). Treatment of the established tumors was begun on day 5 after inoculation of the tumors.

T2 sequence (P35968 20-1356): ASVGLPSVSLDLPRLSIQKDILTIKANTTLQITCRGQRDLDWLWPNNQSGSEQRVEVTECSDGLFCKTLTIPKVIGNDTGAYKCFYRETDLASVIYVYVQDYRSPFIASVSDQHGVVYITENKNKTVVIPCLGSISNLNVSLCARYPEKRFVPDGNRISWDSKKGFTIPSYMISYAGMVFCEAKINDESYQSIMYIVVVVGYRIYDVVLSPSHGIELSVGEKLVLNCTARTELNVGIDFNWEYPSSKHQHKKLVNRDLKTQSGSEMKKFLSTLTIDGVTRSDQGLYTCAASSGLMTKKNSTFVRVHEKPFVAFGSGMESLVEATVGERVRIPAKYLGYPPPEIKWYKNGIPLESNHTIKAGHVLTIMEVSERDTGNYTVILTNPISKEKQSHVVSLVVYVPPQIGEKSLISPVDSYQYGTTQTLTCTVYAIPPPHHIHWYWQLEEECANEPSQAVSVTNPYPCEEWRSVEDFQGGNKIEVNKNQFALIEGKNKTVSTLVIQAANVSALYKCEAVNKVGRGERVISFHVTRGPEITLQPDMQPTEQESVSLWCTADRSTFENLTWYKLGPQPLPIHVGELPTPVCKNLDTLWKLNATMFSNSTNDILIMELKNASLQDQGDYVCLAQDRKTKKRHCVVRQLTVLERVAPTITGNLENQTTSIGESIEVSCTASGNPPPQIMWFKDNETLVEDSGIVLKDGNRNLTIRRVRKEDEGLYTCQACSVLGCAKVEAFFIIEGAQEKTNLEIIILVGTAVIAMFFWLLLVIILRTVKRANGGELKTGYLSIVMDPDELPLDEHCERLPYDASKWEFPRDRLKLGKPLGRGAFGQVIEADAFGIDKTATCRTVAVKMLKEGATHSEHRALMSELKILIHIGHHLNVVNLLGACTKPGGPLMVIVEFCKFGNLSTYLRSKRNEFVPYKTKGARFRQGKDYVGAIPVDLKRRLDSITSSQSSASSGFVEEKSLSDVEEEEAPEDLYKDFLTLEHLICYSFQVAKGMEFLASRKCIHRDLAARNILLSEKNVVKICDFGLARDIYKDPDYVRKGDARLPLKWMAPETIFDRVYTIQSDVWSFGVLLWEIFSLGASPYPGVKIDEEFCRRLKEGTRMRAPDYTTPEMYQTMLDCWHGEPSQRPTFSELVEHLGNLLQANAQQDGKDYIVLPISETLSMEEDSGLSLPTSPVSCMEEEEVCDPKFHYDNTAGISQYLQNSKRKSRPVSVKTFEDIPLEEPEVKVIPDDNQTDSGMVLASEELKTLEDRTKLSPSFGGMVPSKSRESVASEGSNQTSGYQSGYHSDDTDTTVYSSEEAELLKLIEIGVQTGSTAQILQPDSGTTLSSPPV
T1 sequence (P06493 whole entry): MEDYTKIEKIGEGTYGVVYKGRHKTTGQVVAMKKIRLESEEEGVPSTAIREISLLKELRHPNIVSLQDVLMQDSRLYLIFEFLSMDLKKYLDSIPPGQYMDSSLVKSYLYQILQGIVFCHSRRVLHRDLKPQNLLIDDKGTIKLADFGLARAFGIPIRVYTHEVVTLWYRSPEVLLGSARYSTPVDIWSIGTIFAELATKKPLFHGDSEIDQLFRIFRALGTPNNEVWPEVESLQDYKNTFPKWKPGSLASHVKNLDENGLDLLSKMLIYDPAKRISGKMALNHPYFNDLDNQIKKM
T1 sequence (P14635 whole entry partner): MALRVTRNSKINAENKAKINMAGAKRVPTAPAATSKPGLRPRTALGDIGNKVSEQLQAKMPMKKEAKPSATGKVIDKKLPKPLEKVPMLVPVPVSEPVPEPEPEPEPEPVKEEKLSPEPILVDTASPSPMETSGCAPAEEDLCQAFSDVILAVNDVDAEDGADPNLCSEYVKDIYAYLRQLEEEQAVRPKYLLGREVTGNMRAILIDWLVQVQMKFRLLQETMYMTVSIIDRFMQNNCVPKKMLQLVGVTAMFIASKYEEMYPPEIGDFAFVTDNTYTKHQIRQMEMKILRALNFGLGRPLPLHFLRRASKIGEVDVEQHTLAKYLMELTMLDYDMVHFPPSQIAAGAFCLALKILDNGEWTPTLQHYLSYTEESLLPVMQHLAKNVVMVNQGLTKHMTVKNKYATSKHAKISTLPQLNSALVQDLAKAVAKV

Take `C[C@@H](O)[C@@H](C)Oc1nc(Nc2ccc(S(C)(=N)=O)cc2)ncc1Br` (stereo partly shown) [Example V13]: the IC50 at CDK1/CycB is 3 nM; in data set [1] it was 9 nM; in data set [2], 140 nM. Moreover, in data set [3] (10 mg/kg (group 4), day 20), the “reduction of tumor weight at the end of the study to % of the control group” value came out at 23%. Besides, the “tolerability of the cyclic treatment regimen” value in data set [3] (10 mg/kg) is given as “well-tolerated”. Moreover, in data set [3] (6, 8, 10 mg/kg), the “effect on tumor growth (in words)” value is “dose-dependent inhibition of tumor growth”. Moreover, in data set [3] (Mus musculus, 480 h, 10 mg/kg (group 4), day 20, read-out: treatment/control ratio T/C (tumor weight)), the response vs control in vivo at 10 mg/kg came to 23%.
